Some test systems named below: COLO 205 colon; DU-145 prostate; HT29 colon; IGROV1 ovarian; KM12 colon; LOX IMVI melanoma; MALME-3M melanoma; MDA-MB-231 breast; NCI-H460 lung; NCI/ADR-RES ovarian; OVCAR-8 ovarian; RPMI-8226 leukemia; SF-295 CNS; SK-MEL-2 melanoma; SK-MEL-28 melanoma; SK-OV-3 ovarian; SW-620 colon; UACC-257 melanoma; UACC-62 melanoma; UO-31 renal.
Holding throughout (assay): NCI anticancer screen, dose series, 48 h

The source of these data is PubChem BioAssay (NCI).

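All cell lines were grown in 96-well plates and treated with compound for 48 hours. TGI: total growth inhibition.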

As for `N#CC12CC=C(c3ccccc3)N=C1NC(c1ccccc1)=CC2` (stereo not given), the TGI in the test with COLO 205 colon, in the test with DU-145 prostate, in the test with HT29 colon, with IGROV1 ovarian, in the test with KM12 colon and in the test on LOX IMVI melanoma was more than 100 µM each time. The TGI in the test on MALME-3M melanoma was more than 100 µM; with MDA-MB-231 breast it was more than 100 µM; in the test on NCI-H460 lung, more than 100 µM; with NCI/ADR-RES ovarian, more than 100 µM; in the test with OVCAR-8 ovarian it was more than 100 µM; in the test on RPMI-8226 leukemia it was 73.8 µM. Besides, the TGI in the test with SF-295 CNS, in the test on SK-MEL-2 melanoma, with SK-MEL-28 melanoma, with SK-OV-3 ovarian, in the test with SW-620 colon and in the test on UACC-257 melanoma was more than 100 µM in each case. For the same molecule, the TGI with UACC-62 melanoma and in the test with UO-31 renal was more than 100 µM throughout.
For the molecule `CNC(=O)C1CCC(=O)N1CN(C(C)=O)c1ccccc1` (stereo not given), the TGI in the test with COLO 205 colon, with DU-145 prostate, in the test with HT29 colon, in the test with IGROV1 ovarian, in the test with KM12 colon and in the test on LOX IMVI melanoma was more than 100 µM in each case. In addition, the TGI in the test with MALME-3M melanoma, in the test on MDA-MB-231 breast, in the test on NCI-H460 lung, in the test on NCI/ADR-RES ovarian, in the test on OVCAR-8 ovarian and in the test with RPMI-8226 leukemia was more than 100 µM throughout. For the same molecule, the TGI in the test on SF-295 CNS, in the test with SK-MEL-2 melanoma, with SK-MEL-28 melanoma, with SK-OV-3 ovarian, in the test with SW-620 colon and in the test on UACC-257 melanoma was more than 100 µM each time. Besides, the TGI in the test with UACC-62 melanoma and in the test with UO-31 renal was more than 100 µM throughout.
For `CCCC(=O)n1[nH]c(=O)n(C(C)(C)C)c1=O`, the TGI in the test on COLO 205 colon, in the test on DU-145 prostate, in the test on HT29 colon, in the test on IGROV1 ovarian, in the test on KM12 colon and with LOX IMVI melanoma was more than 100 µM each time. The TGI with MALME-3M melanoma, with MDA-MB-231 breast, with NCI-H460 lung, with NCI/ADR-RES ovarian, in the test on OVCAR-8 ovarian and in the test with RPMI-8226 leukemia was more than 100 µM throughout. For the same molecule, the TGI in the test with SF-295 CNS, in the test on SK-MEL-2 melanoma, in the test with SK-MEL-28 melanoma, in the test with SK-OV-3 ovarian, with SW-620 colon and with UACC-257 melanoma was more than 100 µM throughout. Moreover, the TGI with UACC-62 melanoma and in the test with UO-31 renal was more than 100 µM throughout.
